Measurements as given in ChEMBL document CHEMBL1201862, “PubChem BioAssay data set” (2004).
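48-hour exposure; five concentrations; linearly interpolated endpoints. At the GI50, growth is halved.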 Calls of active or inactive are those of the source. Cut-off read from the data, not from the text of the source: active = GI50 up to about 1.1 µM and inactive = higher.

How the values were obtained:
Assay in all cases: growth of human tumour cells (NCI), 48 h
786-0 = system: 786-0
A498 = system: A498
A549 = system: A549
ACHN = system: ACHN
BT-549 = system: BT-549
CAKI-1 = system: CAKI-1
CCRF-CEM = system: CCRF-CEM
COLO 205 = system: COLO 205
EKVX = system: EKVX
HCC 2998 = system: HCC 2998
HCT-116 = system: HCT-116
HCT-15 = system: HCT-15
HOP-62 = system: HOP-62
HT-29 = system: HT-29
Hs-578T = system: Hs-578T
K562 = system: K562
KM12 = system: KM12
M14 = system: M14
MCF7 = system: MCF7
MDA-MB-231 = system: MDA-MB-231
MDA-MB-435 = system: MDA-MB-435
MDA-N = system: MDA-N
MOLT-4 = system: MOLT-4
Malme-3M = system: Malme-3M
NCI-H226 = system: NCI-H226
NCI-H23 = system: NCI-H23
NCI-H460 = system: NCI-H460
NCI/ADR-RES = system: NCI/ADR-RES
OVCAR-3 = system: OVCAR-3
OVCAR-4 = system: OVCAR-4
OVCAR-5 = system: OVCAR-5
OVCAR-8 = system: OVCAR-8
PC-3 = system: PC-3
RPMI-8226 = system: RPMI-8226
SF-268 = system: SF-268
SF-295 = system: SF-295
SF-539 = system: SF-539
SK-MEL-28 = system: SK-MEL-28
SK-MEL-2 = system: SK-MEL-2
SK-OV-3 = system: SK-OV-3
SN12C = system: SN12C
SNB-19 = system: SNB-19
SNB-75 = system: SNB-75
SW-620 = system: SW-620
T47D = system: T47D
U-251 = system: U-251
UACC-257 = system: UACC-257
UACC-62 = system: UACC-62
UO-31 = system: UO-31
DU-145 = system: DU-145
HOP-92 = system: HOP-92
IGROV-1 = system: IGROV-1
LOX IMVI = system: LOX IMVI
NCI-H522 = system: NCI-H522
RXF 393 = system: RXF 393
SK-MEL-5 = system: SK-MEL-5
TK-10 = system: TK-10

Measured: GI50

CCOc1ccc(N/C(=C(/C(Cl)=C(/Cl)NCCN)[N+](=O)[O-])n2nnc3ccccc32)cc1
inactive: 786-0 31.8 µM | A498 56.8 µM | A549 > 100 µM | ACHN 17.9 µM | BT-549 28.4 µM | CAKI-1 17.2 µM | CCRF-CEM 22.6 µM | COLO 205 15.6 µM | EKVX 50.2 µM | HCC 2998 > 100 µM | HCT-116 24.3 µM | HOP-62 90.8 µM | HT-29 33.3 µM | Hs-578T 27.5 µM | K562 26.8 µM | KM12 30.8 µM | M14 43.9 µM | MCF7 35 µM | MDA-MB-231 25.9 µM | MDA-MB-435 44.3 µM | MDA-N 58.1 µM | MOLT-4 16.5 µM | Malme-3M 14.5 µM | NCI-H226 86.1 µM | NCI-H23 32.5 µM | NCI-H460 > 100 µM | NCI/ADR-RES 49.5 µM | OVCAR-3 13 µM | OVCAR-4 30.6 µM | OVCAR-5 67.3 µM | OVCAR-8 15 µM | PC-3 28.8 µM | RPMI-8226 30.9 µM | SF-268 13.6 µM | SF-295 70.5 µM | SF-539 18.2 µM | SK-MEL-28 27.9 µM | SK-MEL-2 > 100 µM | SK-OV-3 > 100 µM | SN12C 35.6 µM | SNB-19 > 100 µM | SNB-75 46.8 µM | SW-620 6.79 µM | T47D 32.3 µM | U-251 35.8 µM | UACC-257 > 100 µM | UACC-62 43.5 µM | UO-31 37.9 µM
17.9 µM: HCT-15

CC(C)N1C=[N+](C(C)C)CC1
inactive: 786-0 > 100 µM | A498 > 100 µM | A549 > 100 µM | ACHN > 100 µM | BT-549 > 100 µM | CAKI-1 > 100 µM | CCRF-CEM > 100 µM | COLO 205 > 100 µM | DU-145 > 100 µM | EKVX > 100 µM | HCC 2998 > 100 µM | HCT-116 > 100 µM | HOP-62 > 100 µM | HOP-92 > 100 µM | HT-29 > 100 µM | Hs-578T > 100 µM | IGROV-1 > 100 µM | K562 > 100 µM | KM12 > 100 µM | LOX IMVI > 100 µM | M14 > 100 µM | MCF7 > 100 µM | MDA-MB-231 > 100 µM | MDA-MB-435 > 100 µM | MDA-N > 100 µM | Malme-3M > 100 µM | NCI-H226 > 100 µM | NCI-H23 > 100 µM | NCI-H460 > 100 µM | NCI-H522 > 100 µM | NCI/ADR-RES > 100 µM | OVCAR-3 > 100 µM | OVCAR-4 > 100 µM | OVCAR-5 > 100 µM | OVCAR-8 > 100 µM | PC-3 > 100 µM | RPMI-8226 > 100 µM | RXF 393 > 100 µM | SF-268 > 100 µM | SF-295 > 100 µM | SF-539 > 100 µM | SK-MEL-28 > 100 µM | SK-MEL-2 > 100 µM | SK-MEL-5 > 100 µM | SK-OV-3 > 100 µM | SN12C > 100 µM | SNB-19 > 100 µM | SNB-75 > 100 µM | SW-620 > 100 µM | T47D > 100 µM | TK-10 > 100 µM | U-251 > 100 µM | UACC-257 > 100 µM | UO-31 > 100 µM
> 100 µM: HCT-15
